{
  "source": "paper PMC10700596",
  "about": "(Nature Communications, 2023)",
  "key": {"ABL1-nonphosphorylated": {"biological_target": "ABL1-nonphosphorylated (Homo sapiens, UniProt P00519)", "assay": "biochemical", "type": "binding", "conditions": "10000 nM; read-out: Percent Control"}, "ERBB2": {"biological_target": "ERBB2 (Homo sapiens, UniProt P04626)", "assay": "biochemical", "type": "binding", "conditions": "10000 nM; read-out: Percent Control"}, "[1]": {"biological_target": "T1, TYK2(JH1domain-catalytic) (Homo sapiens, UniProt P29597)", "T1 construct": "TYK2(JH1domain-catalytic); purchased Eurofins DiscoverX KINOMEscan (scanEDGE, 97 kinases)", "T1 sequence (P29597 888-1187 limits assumed)": "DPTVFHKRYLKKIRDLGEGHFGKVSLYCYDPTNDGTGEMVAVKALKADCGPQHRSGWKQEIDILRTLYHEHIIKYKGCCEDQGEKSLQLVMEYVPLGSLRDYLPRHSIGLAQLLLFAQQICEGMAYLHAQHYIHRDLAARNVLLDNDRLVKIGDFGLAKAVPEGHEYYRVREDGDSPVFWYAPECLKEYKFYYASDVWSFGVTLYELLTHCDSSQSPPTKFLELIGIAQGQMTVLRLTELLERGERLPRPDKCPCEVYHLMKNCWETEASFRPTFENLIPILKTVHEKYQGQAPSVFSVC", "assay": "KINOMEscan", "type": "binding"}, "CSNK1G2": {"biological_target": "CSNK1G2 (Homo sapiens, UniProt P78368)", "assay": "biochemical", "type": "binding", "conditions": "10000 nM; read-out: Percent Control"}, "320 GPCRs [2]": {"biological_target": "320 GPCRs (Homo sapiens, UniProt P25021)", "type": "cell-based"}, "320 GPCRs [3]": {"biological_target": "320 GPCRs (Homo sapiens, UniProt Q03431)", "type": "cell-based"}, "320 GPCRs [4]": {"biological_target": "320 GPCRs (Homo sapiens, UniProt P25100)", "type": "cell-based"}, "320 GPCRs [5]": {"biological_target": "320 GPCRs (Homo sapiens, UniProt Q969N4)", "type": "cell-based"}, "320 GPCRs [6]": {"biological_target": "320 GPCRs (Homo sapiens, UniProt P18825)", "type": "cell-based"}, "320 GPCRs [7]": {"biological_target": "320 GPCRs (Homo sapiens, UniProt Q86SQ4)", "sequence (Q86SQ4 38-1221)": "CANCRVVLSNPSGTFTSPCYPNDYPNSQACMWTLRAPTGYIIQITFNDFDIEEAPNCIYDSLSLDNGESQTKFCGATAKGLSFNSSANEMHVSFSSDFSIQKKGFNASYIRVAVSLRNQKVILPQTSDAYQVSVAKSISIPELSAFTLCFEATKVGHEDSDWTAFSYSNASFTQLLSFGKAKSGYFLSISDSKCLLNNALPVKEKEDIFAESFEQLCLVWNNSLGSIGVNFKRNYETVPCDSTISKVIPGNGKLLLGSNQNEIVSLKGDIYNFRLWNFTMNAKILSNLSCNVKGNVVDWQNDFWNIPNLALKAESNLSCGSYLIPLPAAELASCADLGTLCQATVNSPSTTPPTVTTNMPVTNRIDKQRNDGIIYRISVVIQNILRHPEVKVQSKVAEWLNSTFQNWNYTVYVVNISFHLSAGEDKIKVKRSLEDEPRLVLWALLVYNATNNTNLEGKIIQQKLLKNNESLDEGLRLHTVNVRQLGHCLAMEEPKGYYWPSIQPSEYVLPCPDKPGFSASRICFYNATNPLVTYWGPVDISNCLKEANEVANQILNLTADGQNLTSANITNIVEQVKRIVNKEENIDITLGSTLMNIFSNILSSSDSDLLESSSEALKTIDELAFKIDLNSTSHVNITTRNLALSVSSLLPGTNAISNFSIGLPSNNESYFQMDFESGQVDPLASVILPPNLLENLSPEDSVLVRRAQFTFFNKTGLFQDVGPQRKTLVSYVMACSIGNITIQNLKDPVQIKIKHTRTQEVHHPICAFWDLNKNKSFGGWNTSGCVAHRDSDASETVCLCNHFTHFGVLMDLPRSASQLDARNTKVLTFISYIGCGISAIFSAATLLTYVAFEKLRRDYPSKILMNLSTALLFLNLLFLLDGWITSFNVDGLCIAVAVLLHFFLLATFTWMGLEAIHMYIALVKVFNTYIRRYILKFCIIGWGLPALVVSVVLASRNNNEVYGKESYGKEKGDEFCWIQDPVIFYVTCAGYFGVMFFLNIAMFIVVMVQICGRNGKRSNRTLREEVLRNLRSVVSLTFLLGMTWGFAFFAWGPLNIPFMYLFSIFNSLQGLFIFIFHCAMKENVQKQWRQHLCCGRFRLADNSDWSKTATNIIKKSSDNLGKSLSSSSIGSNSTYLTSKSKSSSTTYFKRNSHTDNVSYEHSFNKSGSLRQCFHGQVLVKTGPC", "type": "cell-based"}, "320 GPCRs [8]": {"biological_target": "320 GPCRs (Homo sapiens, UniProt P08173)", "sequence (P08173 whole entry)": "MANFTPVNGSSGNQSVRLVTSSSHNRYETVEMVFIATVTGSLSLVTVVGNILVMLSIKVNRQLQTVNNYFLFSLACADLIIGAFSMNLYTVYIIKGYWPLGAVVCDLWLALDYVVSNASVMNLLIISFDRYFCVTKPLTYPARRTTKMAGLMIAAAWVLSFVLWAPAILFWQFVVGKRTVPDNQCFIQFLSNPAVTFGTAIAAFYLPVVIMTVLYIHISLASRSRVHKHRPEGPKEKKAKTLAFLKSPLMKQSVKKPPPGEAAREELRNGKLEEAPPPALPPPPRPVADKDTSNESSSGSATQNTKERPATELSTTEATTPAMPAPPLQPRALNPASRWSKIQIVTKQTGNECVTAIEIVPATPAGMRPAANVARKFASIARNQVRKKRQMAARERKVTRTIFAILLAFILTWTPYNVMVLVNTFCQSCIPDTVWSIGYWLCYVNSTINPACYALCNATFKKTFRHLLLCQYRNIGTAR", "type": "cell-based"}, "320 GPCRs [9]": {"biological_target": "320 GPCRs (Homo sapiens, UniProt P37288)", "type": "cell-based"}, "320 GPCRs [10]": {"biological_target": "320 GPCRs (Homo sapiens, UniProt P35462)", "type": "cell-based"}, "320 GPCRs [11]": {"biological_target": "320 GPCRs (Homo sapiens, UniProt P51684)", "sequence (P51684 whole entry)": "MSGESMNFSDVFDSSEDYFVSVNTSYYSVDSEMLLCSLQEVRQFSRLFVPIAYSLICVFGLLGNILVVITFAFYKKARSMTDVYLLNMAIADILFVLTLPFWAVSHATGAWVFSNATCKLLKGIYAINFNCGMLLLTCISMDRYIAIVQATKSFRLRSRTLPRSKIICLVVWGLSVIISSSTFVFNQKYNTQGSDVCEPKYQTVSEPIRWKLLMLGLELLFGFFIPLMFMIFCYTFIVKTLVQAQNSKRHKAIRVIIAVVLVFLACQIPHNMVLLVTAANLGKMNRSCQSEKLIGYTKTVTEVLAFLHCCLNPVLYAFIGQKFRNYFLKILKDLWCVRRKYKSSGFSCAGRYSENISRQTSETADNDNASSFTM", "type": "cell-based"}, "320 GPCRs [12]": {"biological_target": "320 GPCRs (Homo sapiens, UniProt Q8TDU9)", "type": "cell-based"}, "320 GPCRs [13]": {"biological_target": "320 GPCRs (Homo sapiens, UniProt Q02643)", "type": "cell-based"}, "320 GPCRs [14]": {"biological_target": "320 GPCRs (Homo sapiens, UniProt O14804)", "type": "cell-based"}, "320 GPCRs [15]": {"biological_target": "320 GPCRs (Homo sapiens, UniProt P35410)", "type": "cell-based"}, "320 GPCRs [16]": {"biological_target": "320 GPCRs (Homo sapiens, UniProt Q13304)", "type": "cell-based"}, "320 GPCRs [17]": {"biological_target": "320 GPCRs (Homo sapiens, UniProt P30411)", "sequence (P30411 whole entry)": "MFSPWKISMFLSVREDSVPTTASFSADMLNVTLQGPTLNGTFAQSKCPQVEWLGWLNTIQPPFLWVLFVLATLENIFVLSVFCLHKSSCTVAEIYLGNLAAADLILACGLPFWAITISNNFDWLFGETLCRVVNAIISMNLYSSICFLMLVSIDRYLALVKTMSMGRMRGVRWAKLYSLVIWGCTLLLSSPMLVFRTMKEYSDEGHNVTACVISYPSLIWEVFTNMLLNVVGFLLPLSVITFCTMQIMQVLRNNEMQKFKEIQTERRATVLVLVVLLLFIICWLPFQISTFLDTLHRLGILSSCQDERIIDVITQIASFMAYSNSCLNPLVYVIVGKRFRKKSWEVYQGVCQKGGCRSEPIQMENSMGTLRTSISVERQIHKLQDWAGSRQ", "type": "cell-based"}, "320 GPCRs [18]": {"biological_target": "320 GPCRs (Homo sapiens, UniProt Q96P68)", "type": "cell-based"}, "320 GPCRs [19]": {"biological_target": "320 GPCRs (Homo sapiens, UniProt Q96RI0)", "sequence (Q96RI0 18-385)": "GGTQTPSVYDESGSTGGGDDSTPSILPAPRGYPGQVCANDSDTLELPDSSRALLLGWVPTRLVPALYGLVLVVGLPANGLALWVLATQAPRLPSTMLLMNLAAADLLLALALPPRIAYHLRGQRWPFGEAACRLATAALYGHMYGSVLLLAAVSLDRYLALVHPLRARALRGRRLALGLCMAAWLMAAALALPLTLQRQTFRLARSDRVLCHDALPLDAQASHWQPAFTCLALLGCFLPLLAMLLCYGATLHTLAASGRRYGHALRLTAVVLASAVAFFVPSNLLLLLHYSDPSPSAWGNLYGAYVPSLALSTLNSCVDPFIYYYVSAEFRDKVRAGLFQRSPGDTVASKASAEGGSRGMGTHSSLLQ", "type": "cell-based"}, "320 GPCRs [20]": {"test_system": "320 GPCRs", "type": "cell-based"}, "320 GPCRs [21]": {"biological_target": "320 GPCRs (Homo sapiens, UniProt Q7Z7M1)", "type": "cell-based"}, "320 GPCRs [22]": {"biological_target": "320 GPCRs (Homo sapiens, UniProt Q13258)", "sequence (Q13258 whole entry)": "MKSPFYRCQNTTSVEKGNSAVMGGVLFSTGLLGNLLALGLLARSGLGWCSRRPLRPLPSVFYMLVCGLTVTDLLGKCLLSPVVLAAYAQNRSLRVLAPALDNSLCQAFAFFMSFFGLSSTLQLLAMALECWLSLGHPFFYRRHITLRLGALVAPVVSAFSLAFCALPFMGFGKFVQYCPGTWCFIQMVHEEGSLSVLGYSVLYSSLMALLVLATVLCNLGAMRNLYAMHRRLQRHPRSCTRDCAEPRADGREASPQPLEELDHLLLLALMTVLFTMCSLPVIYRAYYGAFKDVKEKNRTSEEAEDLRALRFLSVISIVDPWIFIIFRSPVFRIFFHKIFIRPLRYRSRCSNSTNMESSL", "type": "cell-based"}, "320 GPCRs [23]": {"biological_target": "320 GPCRs (Homo sapiens, UniProt O00222)", "sequence (O00222 34-908)": "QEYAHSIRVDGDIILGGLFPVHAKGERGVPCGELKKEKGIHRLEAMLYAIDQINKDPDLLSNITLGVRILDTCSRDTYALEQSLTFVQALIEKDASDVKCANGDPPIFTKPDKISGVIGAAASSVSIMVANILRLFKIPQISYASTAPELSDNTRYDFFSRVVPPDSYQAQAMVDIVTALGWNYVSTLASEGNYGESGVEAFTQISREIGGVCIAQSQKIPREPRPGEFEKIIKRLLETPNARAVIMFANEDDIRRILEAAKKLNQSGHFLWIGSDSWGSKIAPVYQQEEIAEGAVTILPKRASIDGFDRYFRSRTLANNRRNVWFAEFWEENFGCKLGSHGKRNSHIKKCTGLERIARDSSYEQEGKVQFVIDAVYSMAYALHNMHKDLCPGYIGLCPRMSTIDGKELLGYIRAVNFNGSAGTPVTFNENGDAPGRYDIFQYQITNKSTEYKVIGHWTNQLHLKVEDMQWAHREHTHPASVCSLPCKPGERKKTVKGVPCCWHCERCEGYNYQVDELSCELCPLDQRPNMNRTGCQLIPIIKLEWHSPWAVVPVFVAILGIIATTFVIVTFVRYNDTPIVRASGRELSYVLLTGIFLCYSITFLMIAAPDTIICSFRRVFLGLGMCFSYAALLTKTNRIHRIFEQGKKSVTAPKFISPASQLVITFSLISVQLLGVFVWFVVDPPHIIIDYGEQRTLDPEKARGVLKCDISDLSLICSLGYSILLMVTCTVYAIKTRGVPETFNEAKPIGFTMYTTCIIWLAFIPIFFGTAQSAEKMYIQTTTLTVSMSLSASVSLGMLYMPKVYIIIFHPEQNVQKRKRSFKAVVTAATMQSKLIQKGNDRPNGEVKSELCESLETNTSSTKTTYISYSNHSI", "type": "cell-based"}, "320 GPCRs [24]": {"biological_target": "320 GPCRs (Homo sapiens, UniProt P41968)", "type": "cell-based"}, "320 GPCRs [25]": {"biological_target": "320 GPCRs (Homo sapiens, UniProt P51685)", "sequence (P51685 whole entry)": "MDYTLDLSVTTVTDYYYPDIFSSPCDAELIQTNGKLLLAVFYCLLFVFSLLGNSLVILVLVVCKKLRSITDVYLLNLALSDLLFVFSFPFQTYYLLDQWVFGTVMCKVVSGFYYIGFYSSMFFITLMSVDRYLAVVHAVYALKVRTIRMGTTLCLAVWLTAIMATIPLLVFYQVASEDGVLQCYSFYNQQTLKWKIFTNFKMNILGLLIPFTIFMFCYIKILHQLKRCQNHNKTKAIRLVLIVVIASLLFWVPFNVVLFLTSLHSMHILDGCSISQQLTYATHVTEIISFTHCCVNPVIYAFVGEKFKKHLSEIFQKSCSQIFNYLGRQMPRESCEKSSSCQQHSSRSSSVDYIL", "type": "cell-based"}, "320 GPCRs [26]": {"biological_target": "320 GPCRs (Homo sapiens, UniProt P47901)", "type": "cell-based"}, "320 GPCRs [27]": {"biological_target": "320 GPCRs (Homo sapiens, UniProt P32239)", "type": "cell-based"}, "320 GPCRs [28]": {"biological_target": "320 GPCRs (Homo sapiens, UniProt Q9Y653)", "type": "cell-based"}, "320 GPCRs [29]": {"biological_target": "320 GPCRs (Homo sapiens, UniProt Q96RI9)", "type": "cell-based"}, "320 GPCRs [30]": {"biological_target": "320 GPCRs (Homo sapiens, UniProt Q9NS67)", "type": "cell-based"}, "320 GPCRs [31]": {"biological_target": "320 GPCRs (Homo sapiens, UniProt Q8TDS4)", "sequence (Q8TDS4 whole entry)": "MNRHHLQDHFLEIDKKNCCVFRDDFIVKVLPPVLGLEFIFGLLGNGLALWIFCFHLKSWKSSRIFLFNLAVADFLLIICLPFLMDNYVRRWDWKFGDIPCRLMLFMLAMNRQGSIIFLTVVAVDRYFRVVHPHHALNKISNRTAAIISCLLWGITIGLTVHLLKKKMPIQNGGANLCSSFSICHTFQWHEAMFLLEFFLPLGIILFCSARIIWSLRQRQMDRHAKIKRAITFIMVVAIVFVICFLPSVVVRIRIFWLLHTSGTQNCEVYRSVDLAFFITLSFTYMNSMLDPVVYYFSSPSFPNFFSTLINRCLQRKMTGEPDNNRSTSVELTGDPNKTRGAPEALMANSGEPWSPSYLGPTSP", "type": "cell-based"}, "320 GPCRs [32]": {"biological_target": "320 GPCRs (Homo sapiens, UniProt O14842)", "type": "cell-based"}, "AURKB": {"biological_target": "AURKB (Homo sapiens, UniProt Q96GD4)", "assay": "biochemical", "type": "binding", "conditions": "10000 nM; read-out: Percent Control", "from_the_text": "(1 picture or pasted object on this page, not shown here)"}},
  "note": "Values joined by “and” are separate entries in the source; they are usually repeats but may differ in a detail not shown here. Equal entries are not always repeated.",
  "data": [
    {"compound": "O=C(O)C1CCC2(CC1)CC(Nc1ncnc3[nH]c4c(F)cccc4c13)C2", "note": "(centres unmarked) [Compound 74, OC(=O)C1CCC2(CC(C2)NC=3N=CN=C4NC=5C(F)=CC=CC5C34)CC1]", "values": [
      {"measurement": "remaining activity at 10 µM", "setting": "ABL1-nonphosphorylated", "value": 67, "unit": "%"},
      {"measurement": "remaining activity at 10 µM", "setting": "ERBB2", "value": 49, "unit": "%"},
      {"measurement": "remaining binding at 10 µM", "setting": "[1]; 10000 nM, read-out: Percent Control", "value": 0, "unit": "%"},
      {"measurement": "Signal (qPCR)", "setting": "[1]; TYK2, [Compound] 0.0001 nM", "value": "4e-6 and 3.91e-6"},
      {"measurement": "Signal (qPCR)", "setting": "[1]; TYK2, [Compound] 0.01 nM", "value": "3.79e-6 and 3.64e-6"},
      {"measurement": "Signal (qPCR)", "setting": "[1]; TYK2, [Compound] 0.169 nM", "value": "3.6e-6 and 3.79e-6"},
      {"measurement": "Signal (qPCR)", "setting": "[1]; TYK2, [Compound] 0.508 nM", "value": "4.38e-6 and 4.26e-6"},
      {"measurement": "Signal (qPCR)", "setting": "[1]; TYK2, [Compound] 1.52 nM", "value": "4.63e-6 and 4.29e-6"},
      {"measurement": "Signal (qPCR)", "setting": "[1]; TYK2, [Compound] 13.7 nM", "value": "3.86e-6 and 3.5e-6"},
      {"measurement": "Signal (qPCR)", "setting": "[1]; TYK2, [Compound] 41.2 nM", "value": "4.1e-6 and 3.94e-6"},
      {"measurement": "Signal (qPCR)", "setting": "[1]; TYK2, [Compound] 123 nM", "value": "2.97e-6 and 3.29e-6"},
      {"measurement": "Signal (qPCR)", "setting": "[1]; TYK2, [Compound] 370 nM", "value": "2.73e-6 and 2.71e-6"},
      {"measurement": "Signal (qPCR)", "setting": "[1]; TYK2, [Compound] 3330 nM", "value": "6.46e-7 and 5.93e-7"},
      {"measurement": "Signal (qPCR)", "setting": "[1]; TYK2, [Compound] 10000 nM", "value": "1.74e-7 and 2.08e-7"},
      {"measurement": "remaining activity at 10 µM", "setting": "CSNK1G2", "value": 54, "unit": "%"},
      {"measurement": "RLU (Fold over Basal)", "setting": "320 GPCRs [2]", "value": "1 Fold over Basal and 1.4 Fold over Basal"},
      {"measurement": "RLU (Fold over Basal)", "setting": "320 GPCRs [3]", "value": "1.2 Fold over Basal and 1.1 Fold over Basal and 1.4 Fold over Basal"},
      {"measurement": "RLU (Fold over Basal)", "setting": "320 GPCRs [4]", "value": "1.5 Fold over Basal and 1.7 Fold over Basal and 1.6 Fold over Basal and 0.9 Fold over Basal"},
      {"measurement": "RLU (Fold over Basal)", "setting": "320 GPCRs [5]", "value": "0.7 Fold over Basal and 0.5 Fold over Basal"},
      {"measurement": "RLU (Fold over Basal)", "setting": "320 GPCRs [6]", "value": "0.6 Fold over Basal and 0.8 Fold over Basal"},
      {"measurement": "RLU (Fold over Basal)", "setting": "320 GPCRs [7]", "value": "1 Fold over Basal and 1.1 Fold over Basal and 0.9 Fold over Basal and 1.5 Fold over Basal"},
      {"measurement": "RLU (Fold over Basal)", "setting": "320 GPCRs [8]", "value": "1.1 Fold over Basal and 1 Fold over Basal and 1.4 Fold over Basal and 1.2 Fold over Basal"},
      {"measurement": "RLU (Fold over Basal)", "setting": "320 GPCRs [9]", "value": "0.7 Fold over Basal and 1.1 Fold over Basal"},
      {"measurement": "RLU (Fold over Basal)", "setting": "320 GPCRs [10]", "value": "0.5 Fold over Basal and 0.6 Fold over Basal"},
      {"measurement": "RLU (Fold over Basal)", "setting": "320 GPCRs [11]", "value": "0.7 Fold over Basal and 1 Fold over Basal and 0.9 Fold over Basal"},
      {"measurement": "RLU (Fold over Basal)", "setting": "320 GPCRs [12]", "value": "1.1 Fold over Basal and 0.6 Fold over Basal and 0.7 Fold over Basal"},
      {"measurement": "RLU (Fold over Basal)", "setting": "320 GPCRs [13]", "value": "0.7 Fold over Basal and 0.6 Fold over Basal and 0.8 Fold over Basal"},
      {"measurement": "RLU (Fold over Basal)", "setting": "320 GPCRs [14]", "value": "1.3 Fold over Basal and 0.9 Fold over Basal and 1.4 Fold over Basal and 0.8 Fold over Basal"},
      {"measurement": "RLU (Fold over Basal)", "setting": "320 GPCRs [15]", "value": "0.7 Fold over Basal and 1 Fold over Basal and 0.9 Fold over Basal and 0.6 Fold over Basal"},
      {"measurement": "RLU (Fold over Basal)", "setting": "320 GPCRs [16]", "value": "0.4 Fold over Basal and 0.6 Fold over Basal and 0.5 Fold over Basal"},
      {"measurement": "RLU (Fold over Basal)", "setting": "320 GPCRs [17]", "value": "0.4 Fold over Basal and 0.5 Fold over Basal and 0.6 Fold over Basal"},
      {"measurement": "RLU (Fold over Basal)", "setting": "320 GPCRs [18]", "value": 0.3, "unit": "Fold over Basal"},
      {"measurement": "RLU (Fold over Basal)", "setting": "320 GPCRs [19]", "value": "1 Fold over Basal and 0.7 Fold over Basal and 1.2 Fold over Basal"},
      {"measurement": "agonist activity in GPCR panel", "setting": "320 GPCRs [20]", "value": "no agonist activity"},
      {"measurement": "RLU (Fold over Basal)", "setting": "320 GPCRs [21]", "value": "1.3 Fold over Basal and 0.7 Fold over Basal"},
      {"measurement": "RLU (Fold over Basal)", "setting": "320 GPCRs [22]", "value": "0.7 Fold over Basal and 1 Fold over Basal and 1.1 Fold over Basal"},
      {"measurement": "RLU (Fold over Basal)", "setting": "320 GPCRs [23]", "value": "1.1 Fold over Basal and 0.8 Fold over Basal and 1.5 Fold over Basal"},
      {"measurement": "RLU (Fold over Basal)", "setting": "320 GPCRs [24]", "value": "0.5 Fold over Basal and 1 Fold over Basal and 0.7 Fold over Basal and 0.8 Fold over Basal"},
      {"measurement": "RLU (Fold over Basal)", "setting": "320 GPCRs [25]", "value": "1.6 Fold over Basal and 1.2 Fold over Basal and 0.8 Fold over Basal and 1.5 Fold over Basal"},
      {"measurement": "RLU (Fold over Basal)", "setting": "320 GPCRs [26]", "value": "0.9 Fold over Basal and 1 Fold over Basal and 0.5 Fold over Basal"},
      {"measurement": "RLU (Fold over Basal)", "setting": "320 GPCRs [27]", "value": "0.9 Fold over Basal and 1.1 Fold over Basal and 0.8 Fold over Basal"},
      {"measurement": "RLU (Fold over Basal)", "setting": "320 GPCRs [28]", "value": "0.9 Fold over Basal and 0.7 Fold over Basal and 0.8 Fold over Basal"},
      {"measurement": "RLU (Fold over Basal)", "setting": "320 GPCRs [29]", "value": "0.9 Fold over Basal and 1.1 Fold over Basal and 1.2 Fold over Basal"},
      {"measurement": "RLU (Fold over Basal)", "setting": "320 GPCRs [30]", "value": "0.4 Fold over Basal and 0.7 Fold over Basal and 0.8 Fold over Basal and 0.6 Fold over Basal"},
      {"measurement": "RLU (Fold over Basal)", "setting": "320 GPCRs [31]", "value": "1.1 Fold over Basal and 1.6 Fold over Basal and 1.9 Fold over Basal and 1.5 Fold over Basal"},
      {"measurement": "RLU (Fold over Basal)", "setting": "320 GPCRs [32]", "value": "1.6 Fold over Basal and 0.9 Fold over Basal"},
      {"measurement": "remaining activity at 10 µM", "setting": "AURKB", "value": 8.2, "unit": "%"}
    ]}
  ]
}
